# Columns and labels:
# [1] = system: green foxtail; experiment: Test Example 5: herbicidal effect by foliage application, plastic box (Table 20, symbol G); format: in vivo, green foxtail (Setaria viridis)
# Method in brief: (§1)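 Foliar spray test: emulsion formulation diluted in water to a set application rate, sprayed onto 14-day-old plants raised in diluvial soil at 25° C to 30° C under glass. Both herbicidal effect and crop effect rated visually three weeks later.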
# [2] = system: persian speedwell; experiment: Test Example 5: herbicidal effect by foliage application, plastic box (Table 20, symbol R); format: in vivo, Persian speedwell (Veronica persica)
# Method in brief: as §1
# [3] = system: wild oat; experiment: Test Example 4: herbicidal effect by soil treatment (Table 19, symbol I); format: in vivo, wild oat (Avena fatua)
# Method in brief: (§2)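 Step 1: sow seeds in sterilized diluvial soil, cover ~1.5 cm. Step 2: spray diluted emulsion onto soil surface at predetermined rate. Step 3: greenhouse, 25–30° C, three weeks. Step 4: grade effect on each plant by earlier criteria.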
# [4] = system: velvetleaf; experiment: Test Example 4: herbicidal effect by soil treatment (Table 19, symbol M); format: in vivo, velvetleaf (Abutilon theophrasti)
# Method in brief: as §2
# [5] = system: Chinese sprangletop; experiment: Test Example 3: herbicidal effect by foliage application, Wagner pot (Table 18, symbol D); format: in vivo, chinese sprangletop (Leptochloa chinensis); conditions: 320 g/ha
# Method in brief: (§3)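 Plants were sown in alluvial soil held under 0.1–0.5 cm standing water and grown 14 days in a greenhouse at 25–30 °C. An emulsifiable formulation, water-diluted to the set dose, was then sprayed onto the foliage, and effects were scored three weeks later using previously defined criteria.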
# [6] = system: green foxtail; experiment: Test Example 4: herbicidal effect by soil treatment (Table 19, symbol G); format: in vivo, green foxtail (Setaria viridis)
# Method in brief: as §2
# [7] = system: persian speedwell; experiment: Test Example 4: herbicidal effect by soil treatment (Table 19, symbol R); format: in vivo, Persian speedwell (Veronica persica)
# Method in brief: as §2
# [8] = system: wild oat; experiment: Test Example 5: herbicidal effect by foliage application, plastic box (Table 20, symbol I); format: in vivo, wild oat (Avena fatua)
# Method in brief: as §1
# [9] = system: blackgrass; experiment: Test Example 5: herbicidal effect by foliage application, plastic box (Table 20, symbol J); format: in vivo, blackgrass (Alopecurus myosuroides)
# Method in brief: as §1
# [10] = system: Italian ryegrass; experiment: Test Example 4: herbicidal effect by soil treatment (Table 19, symbol K); format: in vivo, Italian ryegrass (Lolium multiflorum)
# Method in brief: as §2
# [11] = system: blackgrass; experiment: Test Example 4: herbicidal effect by soil treatment (Table 19, symbol J); format: in vivo, blackgrass (Alopecurus myosuroides)
# Method in brief: as §2
# [12] = system: velvetleaf; experiment: Test Example 5: herbicidal effect by foliage application, plastic box (Table 20, symbol M); format: in vivo, velvetleaf (Abutilon theophrasti)
# Method in brief: as §1
# [13] = system: windgrass; experiment: Test Example 4: herbicidal effect by soil treatment (Table 19, symbol L); format: in vivo, windgrass (Apera spica-venti)
# Method in brief: as §2
# [14] = system: southern crabgrass; experiment: Test Example 5: herbicidal effect by foliage application, plastic box (Table 20, symbol F); format: in vivo, southern crabgrass (Digitaria ciliaris)
# Method in brief: as §1
# [15] = system: lambsquarters; experiment: Test Example 4: herbicidal effect by soil treatment (Table 19, symbol O); format: in vivo, lambsquarters (Chenopodium album)
# Method in brief: as §2
# [16] = system: lambsquarters; experiment: Test Example 5: herbicidal effect by foliage application, plastic box (Table 20, symbol O); format: in vivo, lambsquarters (Chenopodium album)
# Method in brief: as §1
# [17] = system: chickweed; experiment: Test Example 4: herbicidal effect by soil treatment (Table 19, symbol P); format: in vivo, common chickweed (Stellaria media)
# Method in brief: as §2
# [18] = system: rice flat sedge; experiment: Test Example 3: herbicidal effect by foliage application, Wagner pot (Table 18, symbol E); format: in vivo, rice flat sedge (Cyperus iria); conditions: 320 g/ha
# Method in brief: as §3
# [19] = system: barnyard grass; experiment: Test Example 3: herbicidal effect by foliage application, Wagner pot (Table 18, symbol H); format: in vivo, barnyard grass (Echinochloa crus-galli); conditions: 320 g/ha
# Method in brief: as §3
# [20] = system: barnyard grass; experiment: Test Example 4: herbicidal effect by soil treatment (Table 19, symbol H); format: in vivo, barnyard grass (Echinochloa crus-galli)
# Method in brief: as §2
# [21] = system: barnyard grass; experiment: Test Example 5: herbicidal effect by foliage application, plastic box (Table 20, symbol H); format: in vivo, barnyard grass (Echinochloa crus-galli)
# Method in brief: as §1
# [22] = system: southern crabgrass; experiment: Test Example 4: herbicidal effect by soil treatment (Table 19, symbol F); format: in vivo, southern crabgrass (Digitaria ciliaris)
# Method in brief: as §2
# [23] = system: windgrass; experiment: Test Example 5: herbicidal effect by foliage application, plastic box (Table 20, symbol L); format: in vivo, windgrass (Apera spica-venti); conditions: foliage application, AAH 320 g/ha, three weeks after application
# Method in brief: as §1
# [24] = system: redroot pigweed; experiment: Test Example 5: herbicidal effect by foliage application, plastic box (Table 20, symbol N); format: in vivo, redroot pigweed (Amaranthus retroflexus)
# Method in brief: as §1
# [25] = system: chickweed; experiment: Test Example 5: herbicidal effect by foliage application, plastic box (Table 20, symbol P); format: in vivo, common chickweed (Stellaria media)
# Method in brief: as §1
# [26] = system: Italian ryegrass; experiment: Test Example 5: herbicidal effect by foliage application, plastic box (Table 20, symbol K); format: in vivo, Italian ryegrass (Lolium multiflorum)
# Method in brief: as §1
# [27] = system: false cleavers; experiment: Test Example 4: herbicidal effect by soil treatment (Table 19, symbol Q); format: in vivo, false cleavers (Galium spurium)
# Method in brief: as §2
# [28] = system: redroot pigweed; experiment: Test Example 4: herbicidal effect by soil treatment (Table 19, symbol N); format: in vivo, redroot pigweed (Amaranthus retroflexus); conditions: amount of applied herbicide 320 g/ha
# Method in brief: as §2
# [29] = foliage application, AAH 320 g/ha, three weeks after application
# [30] = 320 g/ha, foliage application after 14-day growth, evaluated three weeks after application
# [31] = amount of applied herbicide 320 g/ha
structure (smiles),measurement,setting,value
CCCC(=O)Oc1c(OC)nn(C)c(=O)c1-c1c(-c2ccc(F)c(F)c2)sc2ccccc12 [1-173],"G: green foxtail, herbicidal effect",[1]; [29],3 (Herbicidal rate of 40% or more and less than 70%)
same,"R: persian speedwell, herbicidal effect",[2]; [29],5 (Herbicidal rate of 90% or more (almost completely withered))
same,"I: wild oat, herbicidal effect rating",[3]; AAH 320 g/ha,0 (Herbicidal rate of 5% or less (almost no effect))
same,"M: velvetleaf, herbicidal effect rating",[4]; AAH 320 g/ha,4 (Herbicidal rate of 70% or more and less than 90%)
same,"herbicidal effect on D (Chinese sprangletop), rating 0-5",[5],0 (Herbicidal rate of 5% or less (almost no effect))
same,"G: green foxtail, herbicidal effect rating",[6]; AAH 320 g/ha,5 (Herbicidal rate of 90% or more (almost completely withered))
same,"R: persian speedwell, herbicidal effect rating",[7]; AAH 320 g/ha,5 (Herbicidal rate of 90% or more (almost completely withered))
same,"I: wild oat, herbicidal effect",[8]; [29],1 (Herbicidal rate of 5% or more and less than 20%)
same,"J: blackgrass, herbicidal effect",[9]; [29],1 (Herbicidal rate of 5% or more and less than 20%)
same,"K: Italian ryegrass, herbicidal effect rating",[10]; AAH 320 g/ha,2 (Herbicidal rate of 20% or more and less than 40%)
same,"J: blackgrass, herbicidal effect rating",[11]; AAH 320 g/ha,0 (Herbicidal rate of 5% or less (almost no effect))
same,"M: velvetleaf, herbicidal effect",[12]; [29],5 (Herbicidal rate of 90% or more (almost completely withered))
same,"L: windgrass, herbicidal effect rating",[13]; AAH 320 g/ha,0 (Herbicidal rate of 5% or less (almost no effect))
same,"F: southern crabgrass, herbicidal effect",[14]; [29],0 (Herbicidal rate of 5% or less (almost no effect))
same,"O: lambsquarters, herbicidal effect rating",[15]; AAH 320 g/ha,5 (Herbicidal rate of 90% or more (almost completely withered))
same,"O: lambsquarters, herbicidal effect",[16]; [29],5 (Herbicidal rate of 90% or more (almost completely withered))
same,"P: chickweed, herbicidal effect rating",[17]; AAH 320 g/ha,5 (Herbicidal rate of 90% or more (almost completely withered))
same,"herbicidal effect on E (rice flat sedge), rating 0-5",[18],5 (Herbicidal rate of 90% or more (almost completely withered))
same,"herbicidal effect on H (barnyard grass), rating 0-5",[19],1 (Herbicidal rate of 5% or more and less than 20%)
same,"H: barnyard grass, herbicidal effect rating",[20]; AAH 320 g/ha,0 (Herbicidal rate of 5% or less (almost no effect))
same,"H: barnyard grass, herbicidal effect",[21]; [29],0 (Herbicidal rate of 5% or less (almost no effect))
same,"F: southern crabgrass, herbicidal effect rating",[22]; AAH 320 g/ha,0 (Herbicidal rate of 5% or less (almost no effect))
same,"L: windgrass, herbicidal effect",[23],0 (Herbicidal rate of 5% or less (almost no effect))
same,"N: redroot pigweed, herbicidal effect",[24]; [29],5 (Herbicidal rate of 90% or more (almost completely withered))
same,"P: chickweed, herbicidal effect",[25]; [29],5 (Herbicidal rate of 90% or more (almost completely withered))
same,"K: Italian ryegrass, herbicidal effect",[26]; [29],4 (Herbicidal rate of 70% or more and less than 90%)
same,"Q: false cleavers, herbicidal effect rating",[27]; AAH 320 g/ha,3 (Herbicidal rate of 40% or more and less than 70%)
COc1ccc(-c2sc3c(F)cccc3c2-c2c(O)c(C)nn(C)c2=O)cc1 [4-005],herbicidal effect on G: green foxtail (evaluation grade 0-5),[1]; [30],5 (Herbicidal rate of 90% or more (almost completely withered))
same,"Herbicidal effect by soil treatment, N: redroot pigweed",[28],0 (Herbicidal rate of 5% or less (almost no effect))
same,herbicidal effect on R: persian speedwell (evaluation grade 0-5),[2]; [30],5 (Herbicidal rate of 90% or more (almost completely withered))
same,"Herbicidal effect by soil treatment, I: wild oat",[3]; [31],0 (Herbicidal rate of 5% or less (almost no effect))
same,"Herbicidal effect by soil treatment, M: velvetleaf",[4]; [31],0 (Herbicidal rate of 5% or less (almost no effect))
same,herbicidal effect on Chinese sprangletop (D),[5],3 (Herbicidal rate of 40% or more and less than 70%)
same,"Herbicidal effect by soil treatment, G: green foxtail",[6]; [31],5 (Herbicidal rate of 90% or more (almost completely withered))
same,"Herbicidal effect by soil treatment, R: persian speedwell",[7]; [31],5 (Herbicidal rate of 90% or more (almost completely withered))
same,herbicidal effect on I: wild oat (evaluation grade 0-5),[8]; [30],0 (Herbicidal rate of 5% or less (almost no effect))
same,herbicidal effect on J: blackgrass (evaluation grade 0-5),[9]; [30],0 (Herbicidal rate of 5% or less (almost no effect))
same,"Herbicidal effect by soil treatment, K: Italian ryegrass",[10]; [31],0 (Herbicidal rate of 5% or less (almost no effect))
same,"Herbicidal effect by soil treatment, J: blackgrass",[11]; [31],0 (Herbicidal rate of 5% or less (almost no effect))
same,herbicidal effect on M: velvetleaf (evaluation grade 0-5),[12]; [30],3 (Herbicidal rate of 40% or more and less than 70%)
same,"Herbicidal effect by soil treatment, L: windgrass",[13]; [31],0 (Herbicidal rate of 5% or less (almost no effect))
same,herbicidal effect on F: southern crabgrass (evaluation grade 0-5),[14]; [30],0 (Herbicidal rate of 5% or less (almost no effect))
same,"Herbicidal effect by soil treatment, O: lambsquarters",[15]; [31],4 (Herbicidal rate of 70% or more and less than 90%)
same,herbicidal effect on O: lambsquarters (evaluation grade 0-5),[16]; [30],3 (Herbicidal rate of 40% or more and less than 70%)
same,"Herbicidal effect by soil treatment, P: chickweed",[17]; [31],4 (Herbicidal rate of 70% or more and less than 90%)
same,herbicidal effect on rice flat sedge (E),[18],5 (Herbicidal rate of 90% or more (almost completely withered))
same,herbicidal effect on barnyard grass (H),[19],4 (Herbicidal rate of 70% or more and less than 90%)
same,"Herbicidal effect by soil treatment, H: barnyard grass",[20]; [31],4 (Herbicidal rate of 70% or more and less than 90%)
same,herbicidal effect on H: barnyard grass (evaluation grade 0-5),[21]; [30],3 (Herbicidal rate of 40% or more and less than 70%)
same,"Herbicidal effect by soil treatment, F: southern crabgrass",[22]; [31],0 (Herbicidal rate of 5% or less (almost no effect))
same,herbicidal effect on N: redroot pigweed (evaluation grade 0-5),[24]; [30],3 (Herbicidal rate of 40% or more and less than 70%)
same,herbicidal effect on P: chickweed (evaluation grade 0-5),[25]; [30],5 (Herbicidal rate of 90% or more (almost completely withered))
same,herbicidal effect on K: Italian ryegrass (evaluation grade 0-5),[26]; [30],4 (Herbicidal rate of 70% or more and less than 90%)
same,"Herbicidal effect by soil treatment, Q: false cleavers",[27]; [31],0 (Herbicidal rate of 5% or less (almost no effect))

# From patent US20230085307A1, “PYRIDAZINONE COMPOUND AND HERBICIDE” (NISSAN CHEMICAL CORPORATION, priority 2019, published 2023)
